Data from patent US20250042918A1, “COMPOUNDS” (Fundación Del Sector Públlco Estatal Centro Nacional De …, priority 2021, published 2025).

Legend:
[1] = system: Naïve CD4+ T cells, Th17 cells; test: CD4+ T cell differentiation under Th17 conditions (IL-17A, ELISA and FACS); format: cell-based, mice
Protocol: (§1) Naïve CD4^+ T cells were purified from mice spleens and lymph nodes using positive selection by magnetic beads (CD4 L3T4 Kit, Miltenyi Biotec, UK). The purified T cells were activated by plate-bound αCD3ε (1 μg/ml; 2C11) and αCD28 (3 μg/ml; 37.51) in the presence or absence of the compound of Example 1 or Cyclosporin A (Sigma Aldrich), and cultured for 72 hrs under Th1 conditions (IL-12 [20 ng/ml]+αIL-4 (11B1) [10 μg/ml]), 72 hrs under Th17 conditions (αIFNγ [10 μg/ml]+αIL-4 [5 μg/ml]+IL-6 [[…]]+TGFβ(5 ng/ml)), and 96 hrs under iTreg conditions (TGFβ (5 ng/ml)) at 37° C.
ELISA kits for mouse IFNγ and IL-17a were purchased from eBioscience (Thermo Fisher, UK) and performed in accordance to manufacturer's instructions using Corning® High Binding ELISA plates (Merck, CLS9018). All ELISAs were analysed using a Synergy MX microplate reader (BioTek).
Intracellular protein expression was evaluated by first restimulating the cells with phorbol-12-myristate 13-acetate (PMA)(10 ng/ml) (Sigma Aldrich), ionomycin (1 μg/ml) (Sigma Aldrich) and Brefeldin A (5 μg/ml) (eBioscience) for 4-6 hours at 37° C. […] Fc block (93) and all fluorescence dye labelled antibodies used αCD4 (GK1.5), αIFNγ (XMG1.2), αIL-17a (17B7), αFOXP3 (NRRF-30; FJK-16S) were purchased from eBiosciences (Thermo Fisher, UK). […]

[2] = system: human leukaemia KG-1 subcutaneous xenograft; test: In vivo efficacy in leukaemia model, subcutaneous xenograft; details: KG-1 xenograft, CB-17 SCID mice, oral 25 BID, 50 and 100 mg/kg QD, 21 days
Protocol: The anti-tumour efficacy of the compound of Example 1 was measured in human leukaemia KG-1 subcutaneous xenograft models in CB-17 SCID mice.
Mice grouping was on day 0 (DO) and Example 1 25 BID*21 group was started on the evening of day 0 (DO), other groups were started on the morning of day 1 (D1). At the 21 days of the treatment, 8 h and 24h post the last dose, 4 mice each from vehicle group, Example 1 25 mg/kg BID group and Example 1 50 mg/kg group were subjected tumour collection.
Animals: Female mice (Mus musculus) strain: CB-17 SCID; 6-8 weeks old Body weight: 18-20 g; were obtained from Shanghai Lingchang BioTech Co., Ltd. Of the 59 obtained, 40 were grouped for efficacy study. The mice were kept in individual ventilation cages at constant temperature (20˜26° C.) and humidity (40-70%) with 5 animals in each cage. […]
Tumour Measurements and the Endpoints: The major endpoint was tumour growth delay or cure. Tumour size was measured thrice weekly in two dimensions using a caliper, and the volume was expressed in mm^3 using the formula: V=0.5 a×b^2 where a and b were the long and short diameters of the tumour, respectively. […] TGI was calculated according to the following equation: […]

[3] = system: Naïve CD4+ T cells, iTreg cells; test: CD4+ T cell differentiation under iTreg conditions (FoxP3, FACS); format: cell-based, mice; details: 12.5 nM
Protocol: as §1
Intracellular protein expression was evaluated by first restimulating the cells with phorbol-12-myristate 13-acetate (PMA)(10 ng/ml) (Sigma Aldrich), ionomycin (1 μg/ml) (Sigma Aldrich) and Brefeldin A (5 μg/ml) (eBioscience) for 4-6 hours at 37° C. […] Fc block (93) and all fluorescence dye labelled antibodies used αCD4 (GK1.5), αIFNγ (XMG1.2), αIL-17a (17B7), αFOXP3 (NRRF-30; FJK-16S) were purchased from eBiosciences (Thermo Fisher, UK). Multi-parameter analysis was performed on an LSR/Fortessa (Becton Dickinson Biosciences (BD)) and analysed using FlowJo software (Tree Star).

CN1CCOc2c1c(N[C@H]1CC[C@@](C)(O)CC1)nn1c(-c3cccc(OC(F)(F)F)c3)nnc21 [Example 1, 1-Methyl-4-[6-methyl-3-(3-trifluoromethoxy-phenyl)-7,8-dihydro-6H-9-oxa-1,2,3a,4,6-pentaaza-cyclopenta[a]naphthalen-5-ylamino]-cyclohexanol]
pro-inflammatory Th17 responses ([1]; 12.5 nM, 72 hrs Th17 conditions): significant suppression | Differentiation of Th17 cells in vitro as determined by the secretion of IL-17A ([1]; at a range of concentrations, ELISA and FACS): inhibited | anti-tumour efficacy (tumour volume) [2]: effective | generation of immunoregulatory iTreg cells [3]: enhancing the generation | expression of the transcription factor FoxP3 ([3]; 96 hrs iTreg conditions, FACS): significantly increased expression
